Assay results taken from publication PMC8044178, “Structural basis of norepinephrine recognition and transport inhibition in neurotransmitter transporters” (Nature Communications, 2021).
Several values for one entry are separate records, joined by “and”; a condition that tells them apart may be missing. Equal entries are not always repeated.

How the values were obtained:
dDAT D121G/S426M = settings: cited from earlier work
dDATNET = molecular target: T1, dDATNET (Drosophila melanogaster, UniProt Q7K4Y6, D121G/DEL162-202/F471L/L415A/S426M/V74A); assay: [3H] nisoxetine binding, scintillation proximity assay, purified dDATNET; settings: for Specific CPM/p.mole protein: DAT_NET, single replicates
T1 construct: GFP-8x-His (C); made in house; host or cells: HEK293S GnTI- cells, BacMam baculovirus transduction
Procedure: (§1) Binding assays were performed with 20 nM of purified dDAT protein by scintillation proximity assay. For determining nisoxetine Kd, [^3H] Nisoxetine (Perkin Elmer) (in 1:5 molar ratio) was used in the range of 0.1 nM to 500 nM with 100 µM desipramine added to the control samples. Competition assays were done with 50 nM [^3H] […] The assays were done in 1 mM DDM, 0.2 mM CHS, 20 mM Tris-Cl (pH 8), 300 mM NaCl and 5% glycerol. The background values were subtracted to plot the final curves in GraphPad prism v5.0.1 and the Kd values were calculated. The IC50 values obtained from binding competition assays were used to deduce the Ki values by Cheng–Prusoff’s equation.

dDATmfc = molecular target: T2, dDATmfc (Drosophila melanogaster, UniProt Q7K4Y6, DEL162-202/F471L/L415A/V74A); assay: [3H] nisoxetine binding, scintillation proximity assay, purified dDATmfc; settings: for Specific CPM/p.mole protein: DATmfc, single replicates
T2 construct: GFP-8x-His (C); made in house; host or cells: HEK293S GnTI- cells, BacMam baculovirus transduction
Procedure: as §1

hNET = settings: read-out: nisoxetine-binding affinity Kd; cited from earlier work
WT dDAT = settings: read-out: nisoxetine-binding affinity Kd; cited from earlier work

SMILES | increment in ability to compete for nisoxetine / affinity with hNET-like mutations D121G and S426M in subsite B (dDAT D121G/S426M) | Specific CPM/p.mole protein (dDATNET; Nisox 0.1 nM) | Specific CPM/p.mole protein (dDATNET; Nisox 100 nM) | Specific CPM/p.mole protein (dDATNET; Nisox 300 nM) | Specific CPM/p.mole protein (dDATNET; Nisox 500 nM) | Kd (dDATNET; Nisoxetine Kd, dDATNET) | Kd (dDATNET; dissociation constants (Kd) for nisoxetine, range over the dDAT constructs used in this study (dDATNET, dDATmfc)) | Kd (dDATmfc) | Specific CPM/p.mole protein (dDATmfc; Nisox 0.1 nM) | Specific CPM/p.mole protein (dDATmfc; Nisox 1 nM) | Specific CPM/p.mole protein (dDATmfc; Nisox 3 nM) | Specific CPM/p.mole protein (dDATmfc; Nisox 10 nM) | Specific CPM/p.mole protein (dDATmfc; Nisox 30 nM) | Specific CPM/p.mole protein (dDATmfc; Nisox 100 nM) | Specific CPM/p.mole protein (dDATmfc; Nisox 300 nM) | Specific CPM/p.mole protein (dDATmfc; Nisox 500 nM) | Kd (hNET) | Kd (WT dDAT)
COC(=O)[C@H]1[C@@H](OC(=O)c2ccccc2)C[C@@H]2CC[C@H]1N2C [cocaine] | 10 fold | – | – | – | – | – | – | – | – | – | – | – | – | – | – | – | – | –
CNCCC(Oc1ccccc1OC)c1ccccc1 (stereo not drawn) [nisoxetine] | – | 20 CPM/p.mole protein | 565 CPM/p.mole protein and 636 CPM/p.mole protein and 590 CPM/p.mole protein and 524 CPM/p.mole protein and 548 CPM/p.mole protein and 546 CPM/p.mole protein and 490 CPM/p.mole protein and 531 CPM/p.mole protein and 494 CPM/p.mole protein | 687 CPM/p.mole protein and 533 CPM/p.mole protein (2×) and 630 CPM/p.mole protein and 583 CPM/p.mole protein and 563 CPM/p.mole protein and 581 CPM/p.mole protein and 730 CPM/p.mole protein and 516 CPM/p.mole protein | 735 CPM/p.mole protein and 683 CPM/p.mole protein and 709 CPM/p.mole protein and 618 CPM/p.mole protein and 586 CPM/p.mole protein and 593 CPM/p.mole protein and 630 CPM/p.mole protein and 670 CPM/p.mole protein and 642 CPM/p.mole protein | 2.79 ± 0.27 nM | 2.8 to 3.8 nM | 3.82 ± 0.39 nM | 7 CPM/p.mole protein and 10 CPM/p.mole protein and 3 CPM/p.mole protein and 24 CPM/p.mole protein and 15 CPM/p.mole protein (2×) and 14 CPM/p.mole protein and 9 CPM/p.mole protein and 6 CPM/p.mole protein | 126 CPM/p.mole protein and 128 CPM/p.mole protein and 141 CPM/p.mole protein and 114 CPM/p.mole protein and 102 CPM/p.mole protein and 95 CPM/p.mole protein and 97 CPM/p.mole protein and 78 CPM/p.mole protein and 120 CPM/p.mole protein | 292 CPM/p.mole protein and 269 CPM/p.mole protein and 300 CPM/p.mole protein and 210 CPM/p.mole protein and 245 CPM/p.mole protein and 211 CPM/p.mole protein and 113 CPM/p.mole protein and 184 CPM/p.mole protein and 198 CPM/p.mole protein | 455 CPM/p.mole protein (2×) and 499 CPM/p.mole protein and 413 CPM/p.mole protein (2×) and 477 CPM/p.mole protein and 371 CPM/p.mole protein (2×) and 397 CPM/p.mole protein | 491 CPM/p.mole protein and 537 CPM/p.mole protein and 503 CPM/p.mole protein and 506 CPM/p.mole protein and 442 CPM/p.mole protein (2×) and 439 CPM/p.mole protein and 427 CPM/p.mole protein and 408 CPM/p.mole protein | 566 CPM/p.mole protein and 545 CPM/p.mole protein and 533 CPM/p.mole protein and 507 CPM/p.mole protein and 558 CPM/p.mole protein and 473 CPM/p.mole protein and 465 CPM/p.mole protein and 441 CPM/p.mole protein and 405 CPM/p.mole protein | 627 CPM/p.mole protein and 611 CPM/p.mole protein and 570 CPM/p.mole protein and 569 CPM/p.mole protein and 527 CPM/p.mole protein and 520 CPM/p.mole protein and 528 CPM/p.mole protein and 490 CPM/p.mole protein and 436 CPM/p.mole protein | 632 CPM/p.mole protein and 609 CPM/p.mole protein and 595 CPM/p.mole protein and 628 CPM/p.mole protein and 619 CPM/p.mole protein and 565 CPM/p.mole protein and 554 CPM/p.mole protein and 465 CPM/p.mole protein and 467 CPM/p.mole protein | 1.9 nM | 5 nM
